The structures appear in SMILES notation.

This test concerns the target T1, IRAK4 (Homo sapiens, UniProt Q9NWZ3).
T1 construct: endogenous in cells; host or cells: OCI-LY10
T1 sequence (Q9NWZ3 1-460): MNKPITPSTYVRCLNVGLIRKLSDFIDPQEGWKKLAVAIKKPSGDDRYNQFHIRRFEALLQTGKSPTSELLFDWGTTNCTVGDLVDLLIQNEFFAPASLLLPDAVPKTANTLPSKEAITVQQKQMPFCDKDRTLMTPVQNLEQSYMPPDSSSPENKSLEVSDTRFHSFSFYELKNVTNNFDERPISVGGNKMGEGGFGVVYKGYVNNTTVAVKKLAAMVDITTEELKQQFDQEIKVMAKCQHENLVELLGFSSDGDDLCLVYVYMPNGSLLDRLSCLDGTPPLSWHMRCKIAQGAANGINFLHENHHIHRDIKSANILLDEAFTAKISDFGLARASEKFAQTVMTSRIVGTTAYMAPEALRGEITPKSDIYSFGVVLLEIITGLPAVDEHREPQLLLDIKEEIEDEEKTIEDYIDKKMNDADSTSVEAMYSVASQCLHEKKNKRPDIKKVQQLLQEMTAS
Briefly: IRAK4 MSD Degradation in OCI-LY10. It counts as cell-based. Conditions: OCI-LY10 cells, Meso Scale Discovery, incubated 4 to 24 hours. As for the experimental part:
Degradation of IRAK4 in OCI-LY10 was quantitatively measured using Meso Scale Discovery technology. OCI-LY10 cells were seeded in 96-well plates (Corning 3799) with a density of 300,000 cells per well in 100 μL fresh media. Compounds were then added to the assay plates with a final top concentration of 1 to 10 μM in a 1:3 dilution series with total of 8 doses. The assay plates were then incubated for 4 to 24 hours at 37° C. under 5% CO2. The assay plates were then centrifuged for 5 minutes and the cell pellets were treated with 100 μL/well RIPA lysis buffer (Boston BioProducts BP-115D) with proteinase inhibitors. To prepare MSD assay plates (Meso Scale Discovery Catalog number L15XA-3), the plates were coated with 2 μg/mL capture antibody (mouse Anti-IRAK4 antibody [2H9], ab119942) in PBS, at 40 μL/well. The plates were then incubated overnight at 4° C., washed 3 times with 150 μL/well TBST buffer (Cell Signaling Technology, Catalog number 9997S) and blocked with 150 μL/well blocking buffer (Meso Scale Discovery Catalog number R93BA-4). Cell lysates were then added to MSD assay plates and the plates were incubated at room temperature for 1 hour. The plates were then washed 3 times with 150 μL/well TBST buffer and […] primary detection antibody (rabbit Anti-IRAK4 antibody [Y279], from Abcam. Catalog number ab32511, 1 μg/mL). The assay plates were then incubated at room temperature for 1 hour, washed 3 times with 150 μL/well TBST buffer and 254/well secondary detection antibody, SULFO-TAG anti-rabbit antibody were added (anti rabbit antibody from Meso Scale Discovery, Catalog number R32AB-1, 1 μg/mL). The assay plates were then incubated at room temperature for 1 hour, washed 3 times with 150 μL/well TBST buffer, and 150 μL/well MSD reading buffer (Meso Scale Discovery catalog number R92TC-2) was added. The plates were then analyzed by a MSD reader (Meso Scale Discovery, Model Quick Plex SQ 120). The data was then analyzed by software Prism 7.0 from GraphPad and the dose-depended IRAK4 degradation were fit using a three-parameter logistic equation to calculate DC50.
The letter codes for IRAK4 DC50 include: A (<0.01 μM); B (0.01-0.05 μM); C (0.05-0.1 μM); D (0.1-0.2 μM); and E (>0.2 μM).

As usually defined, the DC50 is the concentration giving 50% degradation. Read a low DC50 as degradation at low concentration. Regarding `Cn1c(=O)n(C2CCC(=O)NC2=O)c2cccc(C3CCN(C[C@H]4CC[C@H](n5cc6cc(NC(=O)c7cncc(C(F)(F)F)n7)c(F)cc6n5)CC4)CC3)c21` (stereo partly shown) [I-45], the 50% degradation concentration (DC50) was < 10 nM. The result for `COc1cc2nn([C@H]3CC[C@H](CN4CCCN(c5ccc6c(N7CCC(=O)NC7=O)cncc6c5)CC4)CC3)cc2cc1NC(=O)c1cccc(C(F)(F)F)n1` [I-356] reads < 10 nM; that for `COc1cc2nn([C@H]3CC[C@H](CN4CCN(c5cccc6c(N7CCC(=O)N(C)C7=O)cncc56)CC4)CC3)cc2cc1NC(=O)c1cccc(C(F)(F)F)n1` [I-330], > 200 nM; that for `Cc1cc2nn([C@H]3CC[C@H](CN4CCC(c5cccc6c5n(C)c(=O)n6C5CCC(=O)N(C)C5=O)CC4)CC3)cc2cc1NC(=O)c1cccc(C(F)(F)F)n1` (stereo partly shown) [I-403], > 200 nM. Then `Cn1c(=O)n(C2CCC(=O)NC2=O)c2ccc(F)c(C3CCN(C[C@H]4C[C@H](n5cc6cc(NC(=O)c7cccc(C(F)(F)F)n7)ncc6n5)C4)CC3)c21` (stereo partly shown) [I-147], with 50 to 100 nM; and `Cc1cccc(C(=O)Nc2cc3sc([C@H]4CC[C@H](CN5CCN(CCNc6cccc7c6C(=O)N(C6CCC(=O)NC6=O)C7=O)[C@@H](C)C5)CC4)nc3cc2C(C)(C)O)n1` (stereo partly shown) [I-467], with 10 to 50 nM. Then `C=C/C(NCCCN1CCN(C[C@H]2CC[C@H](c3nc4cc(C(C)(C)O)c(NC(=O)c5cccc(C)n5)cc4s3)CC2)C[C@@H]1C)=C1/C(=O)N(C2CCC(=O)NC2=O)C(=O)/C1=C/C` (stereo partly shown) [I-443], with 10 to 50 nM; and `CN(C[C@H]1CC[C@H](n2cc3cc(NC(=O)C4CC4)c(C(C)(C)O)cc3n2)CC1)C1CCN(Cc2cccc3c2n(C)c(=O)n3C2CCC(=O)NC2=O)CC1` (stereo partly shown) [I-1], with > 200 nM. Regarding `CC(C)Nc1cc(-c2ccc3cc(C#N)cnn23)ncc1C(=O)N[C@H]1CC[C@H](CN2CCN(c3cccc4c3n(C)c(=O)n4C3CCC(=O)NC3=O)CC2)CC1` (stereo partly shown) [I-362], the half-maximal degradation concentration (DC50) was < 10 nM. The result for `CC(C)Nc1c(C(=O)N[C@H]2CC[C@H](CN3CCN(c4cccc5c4n(C)c(=O)n5C4CCC(=O)NC4=O)CC3)CC2)cnc2sc(-c3cncs3)cc12` (stereo partly shown) [I-416] reads < 10 nM. The result for `CN(C[C@H]1CC[C@H](n2cc3cc(NC(=O)c4cccc(C(F)(F)F)n4)ncc3n2)CC1)C1CCN(c2cccc3c2n(C)c(=O)n3C2CCC(=O)NC2=O)CC1` (stereo partly shown) [I-238] reads < 10 nM. Then `CC(C)Nc1cc(-n2ccc3cc(C#N)cnc32)ncc1C(=O)N[C@H]1CC[C@H](CN2CCC(c3cccc4c(N5CCC(=O)NC5=O)cncc34)CC2)CC1` [I-190], with < 10 nM. `CCOc1cc2nn([C@H]3CC[C@H](CN4CCN(c5cccc6c5n(C)c(=O)n6C5CCC(=O)NC5=O)CC4)CC3)cc2cc1NC(=O)c1cccc(C(F)(F)F)n1` (stereo partly shown) [I-294] displayed a half-maximal degradation concentration (DC50) of 10 to 50 nM.

As for `Cc1cc2nn([C@H]3CC[C@H](CN4CCC(c5cccc6c5n(C)c(=O)n6C5CCC(=O)NC5=O)CC4)CC3)cc2cc1NC(=O)c1cccc(C(F)(F)F)n1` (stereo partly shown) [I-70], the DC50 is < 10 nM. `Cc1cccc(C(=O)Nc2cc3sc([C@H]4CC[C@H](CN5CCN(CCNc6cccc7c6C(=O)N(C6CCC(=O)NC6=O)C7=O)[C@H](C)C5)CC4)nc3cc2C(C)(C)O)n1` (stereo partly shown) [I-470] returned a DC50 of 10 to 50 nM. The result for `CN(CCNc1cccc2c1C(=O)N(C1CCC(=O)NC1=O)C2=O)C(=O)[C@H]1CC[C@H](c2nc3cc(C(C)(C)O)c(NC(=O)c4cccc(C(F)(F)F)n4)cc3s2)CC1` (stereo partly shown) [I-488] reads 100 to 200 nM; that for `CC(C)(O)c1cc2nc([C@H]3CC[C@H](C(=O)N4CCC5(CC4)CC(CCNc4cccc6c4C(=O)N(C4CCC(=O)NC4=O)C6=O)C5)CC3)sc2cc1NC(=O)c1cccc(C#N)n1` (stereo partly shown) [I-430], 100 to 200 nM. `CC(C)Nc1cc(-n2ccc3cc(C#N)cnc32)ncc1C(=O)N[C@H]1CC[C@H](CN(C)C2CCN(c3cccc4c3n(C)c(=O)n4C3CCC(=O)NC3=O)CC2)CC1` (stereo partly shown) [I-118]: the 50% degradation concentration (DC50) is < 10 nM. Turning to `COc1ccc2c(c1C1=CCN(C[C@H]3CC[C@H](n4cc5cc(NC(=O)c6cccc(C(F)(F)F)n6)ccc5n4)CC3)CC1)n(C)c(=O)n2C1CCC(=O)NC1=O` (stereo partly shown) [I-355], the 50% degradation concentration (DC50) was < 10 nM. For `Cn1c(=O)n(C2CCC(=O)NC2=O)c2cccc(C3CCN(C(=O)[C@H]4CC[C@H](n5cc6cc(NC(=O)c7cccc(C(F)(F)F)n7)ncc6n5)CC4)CC3)c21` (stereo partly shown) [I-188], the DC50 is > 200 nM. The result for `COc1cc2nn([C@H]3CC[C@H](CN4CCC(c5cccc6c5n(C)c(=O)n6C5CCC(=O)NC5=O)CC4)CC3)cc2cc1NC(=O)c1cc(F)cc(C(F)(F)F)c1` (stereo partly shown) [I-132] reads < 10 nM.

Regarding `CN(C[C@H]1CC[C@H](n2cc3cc(NC(=O)c4cccc(C(F)(F)F)n4)c(C(C)(C)O)cc3n2)CC1)C1CCN(c2ccc3c(N4CCC(=O)NC4=O)cncc3c2)CC1` [I-65], the DC50 was < 10 nM. In the case of `Cn1c(=O)n(C2CCC(=O)NC2=O)c2cccc(C3CCN(C[C@H]4CC[C@H](n5cc6cc(NC(=O)c7cccc(C(F)(F)F)n7)c(C#N)cc6n5)CC4)CC3)c21` (stereo partly shown) [I-189], the DC50 is < 10 nM. The result for `COc1cc2nn([C@H]3CC[C@H](CN4CCN(c5ccc6c(N7CCC(=O)NC7=O)cncc6c5)CC4)CC3)cc2cc1NC(=O)c1cccc(C(F)(F)F)n1` [I-208] reads < 10 nM; that for `COc1cc2nn([C@H]3CC[C@H](CN4CCN(c5cccc6c(N7CCC(=O)NC7=O)cncc56)CC4)CC3)cc2cc1NC(=O)c1cccc(C(F)(F)F)n1` [I-211], < 10 nM; that for `CC(C)Nc1c(C(=O)N[C@H]2CC[C@H](CN3CCC(c4cccc5c4n(C)c(=O)n5C4CCC(=O)NC4=O)CC3)CC2)cnc2c1Oc1cc(C#N)ccc1O2` (stereo partly shown) [I-309], < 10 nM.

Turning to `COc1cc2nn([C@H]3CC[C@H](CN4CC5(CCN(c6cccc7c6n(C)c(=O)n7C6CCC(=O)NC6=O)CC5)C4)CC3)cc2cc1NC(=O)c1cncc(C#N)c1` (stereo partly shown) [I-206], the half-maximal degradation concentration (DC50) is < 10 nM. On to `COc1cc2nc([C@H]3CC[C@H](CN4CCC(c5ccc6c(N7CCC(=O)NC7=O)cncc6c5)CC4)CC3)sc2cc1NC(=O)c1cccc(C(F)(F)F)n1` [I-125], for which the DC50 is < 10 nM. Consider `Cn1c(=O)n(C2CCC(=O)NC2=O)c2ccc(F)c(C3CCN(C[C@H]4CC[C@H](n5cc6cc(NC(=O)c7cccc(C(F)(F)F)n7)ccc6n5)CC4)CC3)c21` (stereo partly shown) [I-74], for which the DC50 is 10 to 50 nM.

With `COc1cc2nn([C@H]3CC[C@H](CN4C5CC4CN(c4cccc6c4n(C)c(=O)n6C4CCC(=O)NC4=O)C5)CC3)cc2cc1NC(=O)c1cncc(C#N)c1` (stereo partly shown) [I-258], the DC50 was > 200 nM.

Regarding `Cc1ccc2c(c1C1CCN(C[C@H]3CC[C@H](n4cc5cc(NC(=O)c6cccc(C#N)n6)ccc5n4)CC3)CC1)n(C)c(=O)n2C1CCC(=O)NC1=O` (stereo partly shown) [I-323], the DC50 is < 10 nM. Then `CC(C)Nc1c(C(=O)N[C@H]2CC[C@H](CN3CCN(c4cccc5c(N6CCC(=O)NC6=O)cncc45)CC3)CC2)cnc2sc(-c3cncs3)cc12` [I-418], with 10 to 50 nM.

As for `CN(CCCN(C)[C@H]1C[C@H](Nc2cccc3c2C(=O)N(C2CCC(=O)NC2=O)C3=O)C1)C[C@H]1CC[C@H](n2cc3cc(NC(=O)c4cccc(C(F)(F)F)n4)c(C(C)(C)O)cc3n2)CC1` (stereo partly shown) [I-263], the 50% degradation concentration (DC50) lay within 10 to 50 nM. As for `CC(=O)c1cc2nn([C@H]3CC[C@H](CN4CCN(c5cccc6c5n(C)c(=O)n6C5CCC(=O)NC5=O)CC4)CC3)cc2cc1NC(=O)c1cccc(C(F)(F)F)n1` (stereo partly shown) [I-412], the 50% degradation concentration (DC50) was < 10 nM.

Consider `COc1cc2nn([C@H]3CC[C@H](CN4CCN(c5cccc6c5n(C)c(=O)n6C5CCC(=O)NC5=O)CC4)CC3)cc2cc1NC(=O)c1cncc(C)c1` (stereo partly shown) [I-365], for which the half-maximal degradation concentration (DC50) was < 10 nM. The result for `COc1cc2nn([C@H]3CC[C@H](CN(C)C4CCN(c5cccc6c5n(C)c(=O)n6C5CCC(=O)NC5=O)CC4)CC3)cc2cc1NC(=O)c1ccc(C(F)(F)F)cn1` (stereo partly shown) [I-16] reads 10 to 50 nM; that for `COc1cc2nn([C@H]3CC[C@H](CN4CCC(c5c(C)ccc6c5n(C)c(=O)n6C5CCC(=O)NC5=O)CC4)CC3)cc2cc1NC(=O)c1cccc(C(F)(F)F)n1` (stereo partly shown) [I-39], < 10 nM.

These data come from patent US12150995B2, “IRAK degraders and uses thereof” (Kymera Therapeutics, Inc., priority 2020, dated 2024).
